The nature of data set [1]: Body weight and ataxia in MDA-MB-435 tumor-bearing mice (Example 82). The class given is in vivo, female CD-1 nude mice. To be noted: for body weight loss: weekly×two injections.
Description: The treatments were administered IV into the tail vein at the dose volumes stated above, beginning on post-implantation Day 21, when the mean tumor volume was 150 mm^3 or, for one group, on Day 37, when the mean tumor volume for that group was 433 mm^3.
Data set [2] in a line: Tolerability in normal non-tumor-bearing mice: body weight, CBC, serum chemistry, ataxia, sciatic nerve histopathology (Example 83). The class given is in vivo, male C57BL/6 mice. How it is done:
Treatments were administered intravenously on a q7d×2 schedule, i.e., two treatments seven days apart (the first treatment was on Day one). The study ended on Day 14, six days after the 2nd treatment. Blood was collected for complete blood count (CBC) and serum chemistry. Leg muscles were collected so that nerve degeneration could be assessed from the sciatic nerve.

In data set [3] the test system is B16.F10 cells. Nature of the data set: Efficacy of docetaxel-2′-5050 PLGA-O-acetyl nanoparticles in mouse melanoma model B16.F10 (Example 84). To be noted: 30 mg/kg, 1/wk×3. The class given is in vivo, male C57BL/6 mice.
Description: B16.F10 cells were grown in culture to 85-90% confluency in MEM-alpha medium supplemented with 10% fetal bovine serum (FBS) and 1% penicillin/streptomycin. Cells were removed from the culture flask using 0.05% trypsin (passage=4), re-suspended in PBS (density=10×10^6 cells/mL) and were implanted subcutaneously (1×10^6 cells in 100 μL MEM-alpha medium/mouse) into the right flank of male C57BL/6 mice on day 1.
(§1) The treatments were administered IV into the tail vein at a dose volume of 10 and 15 ml/kg for a corresponding dose of 30 mg/kg and 45 mg/kg respectively, beginning on post-implantation day 5, when the mean tumor volume was ca. 60 mm^3 Body weight and tumor volume were measured three times a week. In addition, animals were also monitored for any morbidity and adverse effects three times a week.
Tumor volume was calculated with (width×width×length)/2 mm^3 formula. Efficacy was determined by tumor growth inhibition (TGI), tumor growth delay (TGD) and survival. Tumor growth inhibition (TGI) is represented as % and calculated as (1−(treated tumor volume/control tumor volume))×100 when the control group mean tumor volume reached ≧3000 mm^3. Tumor growth delay (TGD) is calculated by subtracting the day when the vehicle treated group reached the maximum tumor size 3000 mm^3 from the day when the treatment group tumor size reached 3000 mm^3. […]
The nature of data set [4]: Tolerability in mouse melanoma model B16.F10 (Example 84). Format: in vivo, male C57BL/6 mice. To be noted: 30 mg/kg, 1/wk×3.
Description: as §1
For data set [5], the system named is ADR-RES cells. Nature of the data set: Efficacy in docetaxel resistant model ADR-RES (Example 85). Format: in vivo, female nu/nu mice.
Description: ADR-RES cells were grown in culture to 85-90% confluency in RPMI medium supplemented with 10% fetal bovine serum (FBS), 1% glutamine and 1% penicillin/streptomycin.
(§2) The treatments were administered IV into the tail vein at a dose volume of 10 and 20 mL/kg for 30 and 60 mg/kg respectively, beginning on post-implantation day 47, when the mean tumor volume was ca. 150 mm^3 Body weight and tumor volume were measured for three times a week during the dosing period and twice a week thereafter. In addition, animals were also monitored for any morbidity and adverse effects for three times a week during the dosing period and twice a week thereafter.
Tumor volume was calculated with (width×width×length)/2 mm^3 formula. Efficacy was determined by tumor growth inhibition (TGI), tumor growth delay (TGD) and survival. Tumor growth inhibition (TGI) is represented as % and calculated as (1−(treated tumor volume/control tumor volume))×100 when the control group mean tumor volume reached ≧1000 mm^3 Tumor growth delay (TGD) is calculated by subtracting the day when the vehicle treated group reached the maximum tumor size 1000 mm^3 from the day when the treatment group tumor size reached 1000 mm^3.
The nature of data set [6]: Tolerability in ADR-RES model (Example 85). The class given is in vivo, female nu/nu mice.
Description: as §2
Data set [7] deals with H1299 cells. Nature of the data set: Efficacy in non-small cell lung carcinoma model H1299 (Example 86). Format: in vivo, male nu/nu mice. To be noted: 30 mg/kg.
Description: H1299 cells were grown in culture to 85-90% confluency in RPMI medium supplemented with 10% fetal bovine serum (FBS), 1% glutamine and 1% penicillin/streptomycin. Cells were removed from the culture flask using 0.05% trypsin (passage=4), re-suspended in RPMI medium (density=50×10^6 cells/mL) and were implanted subcutaneously (5×10^6 cells in 100 μL RPMI medium/mouse) into the mammary fat pad area of male nu/nu mice on day 1.
(§3) The treatments were administered IV into the tail vein at a dose volume of 10 and 20 mL/kg for 30 and 60 mg/kg respectively, beginning on post-implantation day 30 when the mean tumor volume was ca. 170 mm^3 (small tumor group), and on day 37 when the mean tumor volume was ca. 440 mm^3 (large tumor group). Body weight and tumor volume were measured for three times a week during the dosing period and twice a week thereafter. In addition, animals were also monitored for any morbidity and adverse effects for three times a week during the dosing period and twice a week thereafter.
(§4) Tumor volume was calculated with (width×width×length)/2 mm^3 formula. Efficacy was determined by tumor growth inhibition (TGI), tumor growth delay (TGD) and survival. Tumor growth inhibition (TGI) is represented as % and calculated as (1−(treated tumor volume/control tumor volume))×100 when the control group mean tumor volume reached ≧1000 mm^3. Tumor growth delay (TGD) is calculated by subtracting the day when the vehicle treated group reached the maximum tumor size 1000 mm^3 from the day when the treatment group tumor size reached 1000 mm^3.
A short description of data set [8]: Tolerability in H1299 model (Example 86). Format: in vivo, male nu/nu mice.
Description: as §3, §4
Data set [9] deals with B16.F10 cells. Nature of the data set: Efficacy of docetaxel-2′-alanine-glycolate and -2′-glycine-5050 PLGA-O-acetyl nanoparticles in mouse melanoma model B16.F10 (Example 87). The class given is in vivo, male C57BL/6 mice. To be noted: 1/wk×3.
Description: B16.F10 cells were grown in culture to 85-90% confluency in MEM-alpha medium supplemented with fetal bovine serum (FBS) and 1% penicillin/streptomycin. Cells were removed from the flask using 0.05% trypsin (passage=4), re-suspended in PBS (density=10×10^6 cells/mL) and were implanted subcutaneously (1×10^6 cells in 100 μL PBS/mouse) into the right flank of male C57BL/6 mice on day 1.
(§5) The treatments were administered IV into the tail vein at a dose volume of 10 ml/kg, beginning on post-implantation day 5, when the mean tumor volume was ca. 60 mm^3. Animals were monitored for any morbidity and adverse effects three times a week. In addition, body weight and tumor volume were also measured three times a week.
Tumor volume was calculated with (width×width×length)/2 mm^3 formula. Efficacy was determined by tumor growth inhibition (TGI), tumor growth delay (TGD) and survival. Tumor growth inhibition (TGI) is represented as % and calculated as (1−(treated tumor volume/control tumor volume))×100 when the control group mean tumor volume reached ≧3000 mm^3. Tumor growth delay (TGD) is calculated by subtracting the day when the vehicle treated group reached the maximum tumor size 3000 mm^3 from the day when the treatment group tumor size reached 3000 mm^3. The criterion at which a mouse was removed from the study was tumor volume≧3000 mm^3
The nature of data set [10]: Tolerability in mouse melanoma model B16.F10 (Example 87). Format: in vivo, male C57BL/6 mice. To be noted: 1/wk×3.
Description: as §5
The nature of data set [11]: Lyophilization and reconstitution of PEGylated nanoparticles: appearance and particle size (Zetasizer). To be noted: PLGA7K-PVA-PEG2K-30 and PLGA7K-PVA-PEG5K-30 PEGylated nanoparticle formulations, lyoprotectant/nanoparticle weight ratio 1:1. Format: physicochemical.
Excerpt: Nanoparticles comprising therapeutic agents were lyophilized using three different techniques. The first technique was a simple freeze drying technique where the liquid formulations were frozen with liquid nitrogen followed by drying under vacuum overnight at room temperature. During this simple lyophilization technique a Labconco® freeze dryer (available from Labconco Corp. of Kansas City, Mo.) was used. […] Instead of conventional multi-step ramping and holding, one step slow ramping was used in this approach.
Both the rapid cycle and conventional cycle lyophilization reactions were performed using a VirTis advantage freeze dryer.
A lyoprotectant screen was performed as follows. The critical point for design of a lyophilization cycle was to keep the temperature below the glass transition temperature (Tg′) of the lyoprotectant during the primary drying stage.
In this example, a new strategy of using cyclodextrins and their derivatives as a cryoprotectant was tested.
PEGylated nanoparticle formulations were analyzed for nanoparticle size prior to lyophilization, and lyophilized preparations that were completely resuspended by hand shaking were analyzed for nanoparticle size with a Zetasizer particle sizer. […] Prior to lyophilization, lyoprotectants and non-cyclic carbohydrates were added to PEGylated nanoparticle formulations at different weight ratios.
Data set [12] is described as follows: Stability of 1H NMR sample stored at ambient temperature. The class given is physicochemical. To be noted: 4 days. The method, then: Docetaxel-2′-aminoethyldithioethyl carbonate.DCA [2.77 g] was dissolved in DCM (100 mL) to produce a clear solution. It was washed with saturated NaHCO3 (2×40 mL). The organic layer was separated, dried over sodium sulfate and filtered. The filtrate was concentrated to ˜10 mL, to which heptanes (100 mL) was slowly added resulting in a suspension. It was stirred for 0.5 h and filtered (30 mL heptanes wash). The filter cake was vacuum-dried at ambient temperature for 16 h to afford the free base of CPX1231 [2.17 g, yield: 88%].

Data set [13] in a line: Body weight changes in A2780 tumor-bearing mice (Example 78). The class given is in vivo, female CD-1 nude mice. To be noted: Day 36. How it is done:
The stock solution was diluted further with PBS to 1.5 mg/mL (for a dose of 15 mg/kg at 10 mL/kg and 30 mg/kg at 20 mL/kg). This formulation was made within 30 minutes of administration to mice.
The treatments were administered 2 times, on Day 8 and Day 15 (weekly×2 injections) for n=8 mice per group. […] On Day 50, the study was ended for all remaining mice. When removed from the study, mice were euthanized by CO2 inhalation.

The test system of data set [14] is B16.F10 cells. Nature of the data set: Efficacy of PEGylated docetaxel-5050 PLGA-O-acetyl nanoparticles (2k/5k mPEG-PLGA), B16.F10 murine melanoma (Example 79). The class given is in vivo, male C57BL/6 mice. To be noted: q7dx3, 30 mg/kg. The method, then: Refer to table for detailed description of formulations.
Tumor volume was calculated with the following equation: (width×width×length)/2 mm^3.

A short description of data set [15]: Body weight and ataxia in SK-OV-3 tumor-bearing mice (Example 81). Format: in vivo, female CD-1 nude mice. To be noted: 60 mg/kg, weekly×two injections.
For data set [16] the following is noted: mouse, in vivo.
Description: The stock solution was diluted further with PBS to 0.6, 1.5, 3, 4.5 and 6 mg/mL (for a corresponding dose of 6, 15, 30, 45 and 60 mg/kg) so that all the groups received the same amount of ethanol, polysorbate 80, water and PBS. […] 5) PEGylated O-acetyl-5050-PLGA nanoparticle vehicle at the highest concentration of 6 mg/mL.
The treatments were administered IV into the tail vein at a dose volume of 10 mL/kg, beginning on post-implantation Day 5, when the mean tumor volume was 55 mm^3. The treatments were administered 4 times, on Days 5, 8, 12 and 15 (biweekly×4 injections). On Day 17 post-tumor implantation, mice were euthanized by CO2 inhalation according to the procedure guideline. Blood was collected by cardiac puncture and put into ethylenediaminetetraacetic acid (EDTA) or serum separation blood collection tubes. Whole blood was analyzed on the day of collection for CBC analyses. After the blood clotted and was centrifuged, serum was frozen immediately on dry ice for serum chemistry analyses.
Tolerability was determined by changes in body weight, expressed as a percent of the initial body weight on post-implantation Day 5. […] Other indices of toxicity, complete blood count (CBC) and serum chemistry were determined from blood collected from animals that were euthanized on Day 17 by CO2 inhalation, according to the procedure guideline.
Data set [17] deals with B 16.F10 cells. Nature of the data set: CellTiter-Glo cytotoxicity of nanoparticles formed from CDP-linker-docetaxel compounds (Example 131). The class given is cell-based, mouse. To be noted: CellTiter-Glo, 24, 48 and 72 hours of incubation. How it is done:
To measure the cytotoxic effect of CDP-linker-docetaxel compounds, the CellTiter-Glo Luminescent Cell Viability Assay (CTG) was used. […] B 16.F10 cells, grown to 85-90% confluency in 150 cm2 flasks (passage<30), were resuspended in media (MEM-alpha, 10% HI-FBS, 1× antibiotic-antimycotic solution) and added to 96-well opaque-clear bottom plates at a concentration of 1500 cells/well in 200 μL/well. The cells were incubated at 37° C. with 5% CO2 for 24 hours. The following day, serial dilutions of 2× concentrated particles and 2× concentrated free drug were made in 12-well reservoirs with media to specified concentrations. The media in the plates was replaced with 100 μL of fresh media and 100 μL of the corresponding serially diluted drug. Three sets of plates were prepared with duplicate treatments. Following 24, 48 and 72 hours of incubation at 37° C. with 5% CO2, the media in the plates was replaced with 100 μL of fresh media and 100 μL of CTG solution, and then incubated for 5 minutes on a plate shaker at room temperature set to 450 rpm and allowed to rest for 15 minutes. Viable cells were measured by luminescence using a microtiter plate reader. The data was plotted as % viability vs. concentration and standardized to untreated cells.

Data set [18] can be described thus: Particle properties (Zavg, PDI, Dv50, Dv90) by dynamic light scattering. To be noted: polymer conjugate. The class given is physicochemical. An excerpt: Particle solution properties were characterized by dynamic light scattering (DLS) spectrometer.

Several values for one entry are separate records, joined by “and”; a condition that tells them apart may be missing. Equal entries are not always repeated. Where two headings read alike, the source gives them in different places.

With `CC(=O)O[C@@]12CO[C@@H]1C[C@H](O)[C@@]1(C)C(=O)[C@H](O)C3=C(C)[C@@H](OC(=O)[C@H](O)[C@@H](NC(=O)OC(C)(C)C)c4ccccc4)C[C@@](O)([C@@H](OC(=O)c4ccccc4)[C@H]21)C3(C)C` [Free docetaxel, docetaxel], the Ataxia result in data set [1] (60 mg/kg) is reported as “Ataxia was observed four days after the second treatment”. Besides, the serum chemistry parameters result in [2] (q7d×2) is “did not affect any serum chemistry parameter at doses up to 60 mg/kg”. In addition, the “survival on day 40” value in [3] and in data set [9] (30 mg/kg) was 50% throughout. Also, the “survival on day 45” value in [3] and in data set [9] (30 mg/kg) was 0% in each case. The “Maximum body weight loss (%)” value in data set [4] is 12%; in data set [6] (30 mg/kg, 1/biwk×3), 9%; in data set [6] (30 mg/kg, 1/wk×2) it was 6%; in [6] (60 mg/kg, 1/biwk×3), 21%; in [6] (60 mg/kg, 1/wk×2) it was 23%; in data set [8] (30 mg/kg, 1/wk×2, large tumor group) it was 19%. The “Maximum body weight loss (%)” value in [8] (30 mg/kg, 1/wk×2, small tumor group) is 18%; in data set [10] (15 mg/kg) it was 2%; in data set [10] (30 mg/kg), 12% and 14%. In addition, the “survival on day 102” value in data set [5] (30 mg/kg, 1/biwk×3) is reported as 50%. In addition, the “survival on day 106” value in [5] (30 mg/kg, 1/wk×2) stood at 50%; in [5] (60 mg/kg, 1/wk×2), 50%. In data set [5] (60 mg/kg, 1/wk×2), the “day mean tumor volume endpoint (≧1000 mm^3) reached” value worked out at 106 days. Further, the “body weight loss / hind limb paralysis” value in data set [6] (30 mg/kg, 1/biwk×3) was “did not cause any significant body weight loss (<10%) or hind limb paralysis”; in data set [6] (30 mg/kg, 1/wk×2), “did not cause any significant body weight loss (<10%) or hind limb paralysis”; in data set [6] (60 mg/kg, 1/biwk×3) it was “severe hind limb paralysis following the third injection”; in data set [6] (60 mg/kg, 1/wk×2), “hind limb paralysis after the 2nd injection followed by recovery”; in data set [8] (30 mg/kg, large tumor group), “did not cause any significant body weight loss or hind limb paralysis”; in data set [8] (30 mg/kg, small tumor group), “did not cause any significant body weight loss or hind limb paralysis”. For the same compound, the “body weight loss / hind limb paralysis” value in data set [8] (60 mg/kg, large tumor group) was “significant body weight loss and severe hind limb paralysis following the second injection”; in [8] (60 mg/kg, small tumor group), “significant body weight loss and severe hind limb paralysis following the second injection”. Further, the “survival on day 61” value in data set [7] (large tumor group) stood at 50%. In addition, in data set [7] (large tumor group), the “survival on day 80” value is 0%. Further, the “survival on day 56” value in data set [7] (small tumor group) was determined as 50%. In addition, the “survival on day 68” value in [7] (small tumor group) amounted to 0%. Moreover, the “survival on day 29” value in data set [9] (15 mg/kg) turned out to be 50%. The “survival on day 43” value in data set [9] (15 mg/kg) and in data set [9] (30 mg/kg) was 0% each time. In data set [9] (30 mg/kg), the “survival on day 36” value is listed as 50%.
For `OC[C@@H](O)[C@@H](O)[C@H](O)[C@H](O)CO` [Mannitol, mannitol], the “maintenance of particle size after simple lyophilization” value (from here on “maintenance of particle size”) in data set [11] was “None of mannitol, sucrose and trehalose worked at the same ratio”.
On to `OC[C@H]1O[C@@](CO)(O[C@H]2O[C@H](CO)[C@@H](O)[C@H](O)[C@H]2O)[C@@H](O)[C@@H]1O` [Sucrose, sucrose], for which, in data set [11], the “maintenance of particle size” value is “None of mannitol, sucrose and trehalose worked at the same ratio”.
With `OC[C@H]1O[C@H](O[C@H]2O[C@H](CO)[C@@H](O)[C@H](O)[C@H]2O)[C@H](O)[C@@H](O)[C@@H]1O` [Trehalose, trehalose], the “maintenance of particle size” value in [11] was “None of mannitol, sucrose and trehalose worked at the same ratio”.
As for `CC(=O)O[C@@]12CO[C@@H]1C[C@H](O)[C@@]1(C)C(=O)[C@H](O)C3=C(C)[C@@H](OC(=O)[C@H](OC(=O)OCCSSCCN)[C@@H](NC(=O)OC(C)(C)C)c4ccccc4)C[C@@](O)([C@@H](OC(=O)c4ccccc4)[C@H]21)C3(C)C` [docetaxel-2′-aminoethyldithioethyl carbonate], the “degradation of 1H NMR sample” value in data set [12] is listed as “no indication of degradation”.
Turning to `CC(=O)O[C@@]12CO[C@@H]1C[C@H](O)[C@@]1(C)C(=O)[C@H](O)C3=C(C)[C@@H](OC(=O)[C@H](O)[C@@H](NC(=O)OC(C)(C)C)c4ccccc4)C[C@@](O)([C@@H](OC(=O)c4ccccc4)[C@H]21)C3(C)C` [docetaxel], the “% of the initial body weight” value in data set [13] (15 mg/kg) is 113±11%; in data set [13] (30 mg/kg), 105±9%. In [14], the “day average tumor volume reached the end point of 3000 mm^3” value came to 37 days. In data set [15], the Ataxia entry is “observed in all the mice four days after the second treatment”. Moreover, the body weight loss turned out to be 10% in data set [1] (15 mg/kg) and 14% in [1] (30 mg/kg). Besides, the “body weight above the initial on Day 14” value in data set [2] (30 mg/kg q7d×2) worked out at 3%; in data set [2] (45 mg/kg q7d×2) it was 2%. For the same compound, the “weight gained at the second treatment” value in data set [2] (30 and 45 mg/kg q7d×2) is on record as “up to 7%”. In addition, in data set [16], the serum chemistry parameters result is reported as “did not affect any serum chemistry parameter at doses up to 30 mg/kg”.
With `OC[C@H]1O[C@@H]2O[C@H]3[C@H](O)[C@@H](O)[C@@H](O[C@H]4[C@H](O)[C@@H](O)[C@@H](O[C@H]5[C@H](O)[C@@H](O)[C@@H](O[C@H]6[C@H](O)[C@@H](O)[C@@H](O[C@H]7[C@H](O)[C@@H](O)[C@@H](O[C@H]1[C@H](O)[C@H]2O)O[C@@H]7CO)O[C@@H]6CO)O[C@@H]5CO)O[C@@H]4CO)O[C@@H]3CO` [α-CD, α cyclodextrin], the “maintenance of particle size” value in data set [11] is recorded as “also worked at the same weight ratio”.
On to `OC[C@H]1O[C@@H]2O[C@H]3[C@H](O)[C@@H](O)[C@@H](O[C@H]4[C@H](O)[C@@H](O)[C@@H](O[C@H]5[C@H](O)[C@@H](O)[C@@H](O[C@H]6[C@H](O)[C@@H](O)[C@@H](O[C@H]7[C@H](O)[C@@H](O)[C@@H](O[C@H]8[C@H](O)[C@@H](O)[C@@H](O[C@H]9[C@H](O)[C@@H](O)[C@@H](O[C@H]1[C@H](O)[C@H]2O)O[C@@H]9CO)O[C@@H]8CO)O[C@@H]7CO)O[C@@H]6CO)O[C@@H]5CO)O[C@@H]4CO)O[C@@H]3CO` [γ-CD, γ cyclodextrin], for which the “maintenance of particle size” value in [11] was “also worked at the same weight ratio”.
In the case of CDP-2′-glycine-docetaxel, the IC50 in data set [17] lay in the range of 1.2 to 3.7 nM.
Still for that read-out and setting: in the case of CDP-Alanine Glycolate-Docetaxel it was 0.4 to 2 nM.
For CDP-Gly-SN-38, the particle size in [18] stood at 27.9 nm.
In the case of CDP-dithiolethyloxy-carbonate-docetaxel, inhibition in data set [17] was half-maximal at 23 nM (IC50). This counts as double-digit nanomolar.
As for “CDP-hexanoate-docetaxel [CDP-hexanoate-docetaxel nanoparticles]”, the IC50 in [17] was 325 to 440 nM.

The IC50 is the midpoint of a concentration-inhibition curve. A high value points to lower potency.
